Measurements reported in ChEMBL document CHEMBL6127124, “Structure-Activity Relationships and Discovery of (S)-5-(tert-Butyl)-11-(difluoromethoxy)-9-methoxy-2-oxo-1,2,5,6-tetrahydropyrido[2',1':2,3]imidazo[4,5-h]quinoline-3-carboxylic Acid (AB-161), a Novel Orally Available and Liver-Centric HBV RNA Destabilizer” (J Med Chem, 2024).
Converted amounts (≈) assume the structure as drawn.

Assays:
[1] = Drug concentration in CD-1 mouse plasma at 10 mg/kg, po measured for 24 hrs by LC-MS/MS analysis; format: ADME, organism-based; conditions: read-out: Ct
[2] = Drug concentration in Beagle dog lung at 10 mg/kg, po measured for 12 hrs by LC-MS/MS analysis; format: ADME, organism-based, Canis lupus familiaris; conditions: read-out: Ct
[3] = Selectivity ratio of drug concentration in liver in CD-1 mouse at 10 mg/kg, po measured for 24 hrs to EC90 for antiviral activity against HBV infected in human HepG2.2.15 cells assessed as reduction in HBsAg level; format: ADME, organism-based; conditions: in vivo
Hepatitis B virus [4] = test: Antiviral activity against HBV infected in human HepG2.2.15 cells assessed as reduction in HBsAg level incubated for 6 days with media and compound replenishment on third day by CLIA; format: functional, organism-based; conditions: HepG2.2.15, 144 h; for EC90: time 6 day
Cytochrome P450 2B6 = target: T1, Cytochrome P450 2B6 (Homo sapiens, UniProt P20813); test: Inhibition of CYP2B6 in human liver microsomes using bupropion as substrate preincubated for 30 min followed by NADPH addition measured after 12 mins by LC-MS/MS analysis; format: ADME, Microsome
T1 sequence (P20813 whole entry): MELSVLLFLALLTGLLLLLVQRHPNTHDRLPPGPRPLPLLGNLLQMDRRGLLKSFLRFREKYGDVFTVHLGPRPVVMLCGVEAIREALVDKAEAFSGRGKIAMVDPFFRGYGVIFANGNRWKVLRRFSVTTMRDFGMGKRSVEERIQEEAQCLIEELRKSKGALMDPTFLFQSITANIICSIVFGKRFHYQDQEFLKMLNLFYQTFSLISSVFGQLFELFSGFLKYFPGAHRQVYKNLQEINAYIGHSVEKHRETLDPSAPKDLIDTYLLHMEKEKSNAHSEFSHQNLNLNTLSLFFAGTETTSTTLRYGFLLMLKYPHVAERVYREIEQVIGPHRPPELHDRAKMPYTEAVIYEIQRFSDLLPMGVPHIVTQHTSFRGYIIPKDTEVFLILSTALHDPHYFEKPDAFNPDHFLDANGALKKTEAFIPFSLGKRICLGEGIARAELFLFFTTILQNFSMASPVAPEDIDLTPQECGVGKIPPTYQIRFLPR

Hepatitis B virus [5] = test: Antiviral activity against HBV infected in human HepG2.2.15 cells assessed as reduction in HBsAg level incubated for 6 days with media and compound replenishment on third day in presence of 40 percent mouse serum by CLIA; format: functional, organism-based; conditions: HepG2.2.15, 144 h
[6] = Permeability across apical to basal side in human Caco-2 cells at 5 uM incubated for 120 mins by LC-MS/MS analysis; format: ADME, cell-based; conditions: read-out: permeability
Hepatitis B virus [7] = test: Antiviral activity against HBV genotype D in immuno-competent C57BL/6 mouse model of chronic HBV assessed as log10 reduction in serum HBsAg production at 10 mg/kg, po qd for 14 days measured 24 hrs post-last dose by EIA relative to control; format: functional; conditions: time 15 day
[8] = Ratio of drug concentration in kidney to plasma of Beagle dog at 10 mg/kg, po measured for 12 hrs by LC-MS/MS analysis; format: ADME, organism-based, Canis lupus familiaris; conditions: kidney (relative to plasma)
[9] = Ratio of total drug concentration in liver to plasma in CD-1 mouse at 10 mg/kg, po measured for 12 hrs by LC-MS/MS analysis; format: ADME, organism-based; conditions: liver and plasma
[10] = Metabolic stability in Sprague-Dawley rat liver microsomes assessed as clearance at 0.3 uM preincubated for 5 mins followed by NADPH addition measured upto 60 mins by LC-MS/MS analysis; format: ADME, Microsome; conditions: time < 65 min, read-out: CLH
[11] = Drug concentration in Beagle dog kidney at 10 mg/kg, po measured for 12 hrs by LC-MS/MS analysis; format: ADME, organism-based, Canis lupus familiaris; conditions: read-out: Ct
[12] = Selectivity ratio of drug concentration in liver in CD-1 mouse at 10 mg/kg, po measured for 12 hrs to EC90 for antiviral activity against HBV infected in human HepG2.2.15 cells assessed as reduction in HBsAg level; format: ADME, organism-based; conditions: in vivo
[13] = Plasma protein binding in mouse assessed as unbound fraction at 2 uM incubated for 6 hrs by equilibrium dialysis; format: ADME, cell-free
[14] = Kinetic solubility of compound in aqueous buffer at pH 7.4 at 200 uM incubated for 24 hrs by UPLC UV analysis; format: physicochemical; conditions: read-out: Kinetic_solubility
[15] = Metabolic stability in CD-1 mouse liver microsomes assessed as clearance at 0.3 uM preincubated for 5 mins followed by NADPH addition measured upto 60 mins by LC-MS/MS analysis; format: ADME, Microsome; conditions: time < 65 min, read-out: CLH
[16] = Cytotoxicity in human HepG2.2.15 cells by Cell Titer-Glo assay; format: toxicity, cell-based, HepG2 2.2.15
[17] = Metabolic stability in human liver microsomes assessed as clearance at 0.3 uM preincubated for 5 mins followed by NADPH addition measured upto 60 mins by LC-MS/MS analysis; format: ADME, Microsome; conditions: time < 65 min, read-out: CLH
[18] = Kinetic solubility of compound in aqueous buffer at pH 4 at 200 uM incubated for 24 hrs by UPLC UV analysis; format: physicochemical; conditions: read-out: Kinetic_solubility
[19] = Plasma protein binding in dog assessed as unbound fraction at 2 uM incubated for 6 hrs by equilibrium dialysis; format: ADME, cell-free, Canis lupus familiaris
[20] = Metabolic stability in cynomolgous monkey liver microsomes assessed as clearance at 0.3 uM preincubated for 5 mins followed by NADPH addition measured upto 60 mins by LC-MS/MS analysis; format: ADME, Macaca fascicularis, Microsome; conditions: cynomolgus monkey, read-out: CLH
[21] = Plasma protein binding in monkey assessed as unbound fraction at 2 uM incubated for 6 hrs by equilibrium dialysis; format: ADME, cell-free, Macaca mulatta; conditions: rhesus monkey
[22] = Ratio of drug concentration in liver to plasma of CD-1 mouse at 10 mg/kg, po measured for 24 hrs by LC-MS/MS analysis; format: ADME, organism-based; conditions: liver and plasma
[23] = Drug concentration in Beagle dog liver at 10 mg/kg, po measured for 12 hrs by LC-MS/MS analysis; format: ADME, organism-based, Canis lupus familiaris; conditions: read-out: Ct
[24] = AUC (0 to 24 hrs) in CD-1 mouse at 10 mg/kg, po measured for 24 hrs by LC-MS/MS analysis; format: ADME, organism-based; conditions: in vivo
Hepatitis B virus [25] = test: Antiviral activity against HBV genotype D in immuno-competent C57BL/6 mouse model of chronic HBV assessed as log10 reduction in serum HBsAg production at 1 mg/kg, po qd for 14 days measured 24 hrs post-last dose by EIA relative to control; format: functional; conditions: time 15 day
[26] = Plasma protein binding in human assessed as unbound fraction at 2 uM incubated for 6 hrs by equilibrium dialysis; format: ADME, cell-free
[27] = Ratio of drug concentration in liver to plasma of Beagle dog at 10 mg/kg, po measured for 12 hrs by LC-MS/MS analysis; format: ADME, organism-based, Canis lupus familiaris; conditions: liver (relative to plasma)
[28] = Permeability across basal to apical side in human Caco-2 cells at 5 uM incubated for 120 mins by LC-MS/MS analysis; format: ADME, cell-based; conditions: read-out: permeability
[29] = Plasma protein binding in rat assessed as unbound fraction at 2 uM incubated for 6 hrs by equilibrium dialysis; format: ADME, cell-free
[30] = Ratio of total drug concentration in liver to plasma in CD-1 mouse at 10 mg/kg, po measured for 24 hrs by LC-MS/MS analysis; format: ADME, organism-based; conditions: CD-1, mouse, liver and plasma
[31] = Ratio of drug concentration in lung to plasma of Beagle dog at 10 mg/kg, po measured for 12 hrs by LC-MS/MS analysis; format: ADME, organism-based, Canis lupus familiaris; conditions: lung (relative to plasma)

SMILES	concentration at 24 h [1]	concentration at 12 h [2]	Ratio [3]	EC50 (Hepatitis B virus [4])	EC90 (Hepatitis B virus [4])	IC50 (Cytochrome P450 2B6)	EC50 (Hepatitis B virus [5])	Papp A→B at 2 h, 5 µM [6]	log(activity) (Hepatitis B virus [7])	Kp at 12 h [8]	Kp at 12 h [9]	microsomal CLint at 0.3 µM [10]	concentration at 12 h [11]	Ratio [12]	fraction unbound at 6 h, 2 µM [13]	solubility kinetic at 24 h, 200 µM [14]	microsomal CLint at 0.3 µM [15]	CC50 [16]	microsomal CLint at 0.3 µM [17]	solubility kinetic at 24 h, 200 µM [18]	further results
COCCCOc1cc2c(nc1OC)-c1cc(=O)c(C(=O)O)cn1[C@H](C(C)C)C2	29 ng/g	63 ng/g	4	1.3 nM	13 nM	21000 nM	7.8 nM	11.5 ×10⁻⁶ cm/s	1	2.7	6	3 µL/min/mg	129 ng/g	191	0.66	175 µM (≈ 70.4 µg/mL)	3 µL/min/mg	> 50000 nM	2 µL/min/mg	190 µM (≈ 76.5 µg/mL)	fraction unbound at 6 h, 2 µM [19]: 0.38; microsomal CLint at 0.3 µM [20]: 5 µL/min/mg; fraction unbound at 6 h, 2 µM [21]: 0.58; Kp at 24 h [22]: 3; concentration at 12 h [23]: 140 ng/g; AUC(0-t) at 24 h [24]: 4770 ng·h/mL; log(activity) (Hepatitis B virus [25]): 0.81; fraction unbound at 6 h, 2 µM [26]: 0.55; Kp at 12 h [27]: 2.9; Papp B→A at 2 h, 5 µM [28]: 43.8 ×10⁻⁶ cm/s; fraction unbound at 6 h, 2 µM [29]: 0.46; Kp at 24 h [30]: 3; Kp at 12 h [31]: 1.3
COc1cc(OC(F)F)c2nc3c(n2c1)C[C@@H](C(C)(C)C)c1cc(C(=O)O)c(=O)[nH]c1-3	56.8 ng/g	135 ng/g	662	2.2 nM	28 nM	> 25000 nM	40 nM	4.4 ×10⁻⁶ cm/s	0.71	4.3	109	3 µL/min/mg	1180 ng/g	1675	0.02	183 µM (≈ 79.3 µg/mL)	7 µL/min/mg	> 50000 nM	4 µL/min/mg	43 µM (≈ 18.6 µg/mL)	fraction unbound at 6 h, 2 µM [19]: 0.05; microsomal CLint at 0.3 µM [20]: 2 µL/min/mg; fraction unbound at 6 h, 2 µM [21]: 0.02; Kp at 24 h [22]: 184; concentration at 12 h [23]: 2910 ng/g; AUC(0-t) at 24 h [24]: 18900 ng·h/mL; log(activity) (Hepatitis B virus [25]): 0.34; fraction unbound at 6 h, 2 µM [26]: 0.05; Kp at 12 h [27]: 11; Papp B→A at 2 h, 5 µM [28]: 54.5 ×10⁻⁶ cm/s; fraction unbound at 6 h, 2 µM [29]: 0.06; Kp at 24 h [30]: 184; Kp at 12 h [31]: 0.5
CC(C)(C)[C@@H]1Cc2c(nc3c(C(F)(F)F)cc(C4CC4)cn23)-c2[nH]c(=O)c(C(=O)O)cc21	85.6 ng/g	73 ng/g	2089	0.6 nM	6.1 nM	> 25000 nM	6.8 nM	26.6 ×10⁻⁶ cm/s	1.07	3.2	56	5 µL/min/mg	347 ng/g	12480	0.01	154 µM (≈ 68.6 µg/mL)	1 µL/min/mg	48000 nM	1 µL/min/mg	39 µM (≈ 17.4 µg/mL)	fraction unbound at 6 h, 2 µM [19]: 0.02; microsomal CLint at 0.3 µM [20]: 4 µL/min/mg; fraction unbound at 6 h, 2 µM [21]: 0.02; Kp at 24 h [22]: 67; concentration at 12 h [23]: 275 ng/g; AUC(0-t) at 24 h [24]: 20500 ng·h/mL; log(activity) (Hepatitis B virus [25]): 0.47; fraction unbound at 6 h, 2 µM [26]: 0.05; Kp at 12 h [27]: 2.5; Papp B→A at 2 h, 5 µM [28]: 65.6 ×10⁻⁶ cm/s; fraction unbound at 6 h, 2 µM [29]: 0.02; Kp at 24 h [30]: 67; Kp at 12 h [31]: 0.7
